Key:
NCI-H522 = assay: Anticancer activity against human NCI-H522 cells assessed as cell growth inhibition at 10 uM incubated for 48 hrs by SRB assay relative to control; format: functional; conditions: read-out: GI
ACHN = assay: Anticancer activity against human ACHN cells assessed as cell growth inhibition at 10 uM incubated for 48 hrs by SRB assay relative to control; format: functional; conditions: read-out: GI
MDA-MB-468 = assay: Anticancer activity against human MDA-MB-468 cells assessed as cell growth inhibition at 10 uM incubated for 48 hrs by SRB assay relative to control; format: functional; conditions: read-out: GI
Carbonic anhydrase 9 = Carbonic anhydrase 9 (Homo sapiens, UniProt Q16790); assay: Inhibition of recombinant human CA 9 preincubated for 15 mins by phenol red dye based stopped flow CO2 hydration assay
OVCAR-5 = assay: Anticancer activity against human OVCAR-5 cells assessed as cell growth inhibition at 10 uM incubated for 48 hrs by SRB assay relative to control; format: functional; conditions: read-out: GI
SNB-75 = assay: Anticancer activity against human SNB-75 cells assessed as cell growth inhibition at 10 uM incubated for 48 hrs by SRB assay relative to control; format: functional; conditions: read-out: GI
SNB-19 = assay: Anticancer activity against human SNB-19 cells assessed as cell growth inhibition at 10 uM incubated for 48 hrs by SRB assay relative to control; format: functional; conditions: read-out: GI
IGROV-1 = assay: Anticancer activity against human IGROV-1 cells assessed as cell growth inhibition at 10 uM incubated for 48 hrs by SRB assay relative to control; format: functional; conditions: read-out: GI
HL-60(TB) = assay: Anticancer activity against human HL-60(TB) cells assessed as cell growth inhibition at 10 uM incubated for 48 hrs by SRB assay relative to control; format: functional; conditions: read-out: GI
Malme-3M = assay: Anticancer activity against human Malme-3M cells assessed as cell growth inhibition at 10 uM incubated for 48 hrs by SRB assay relative to control; format: functional; conditions: read-out: GI
K562 = assay: Anticancer activity against human K562 cells assessed as cell growth inhibition at 10 uM incubated for 48 hrs by SRB assay relative to control; format: functional; conditions: read-out: GI
SF-539 = assay: Anticancer activity against human SF-539 cells assessed as cell growth inhibition at 10 uM incubated for 48 hrs by SRB assay relative to control; format: functional; conditions: read-out: GI
UACC-257 = assay: Anticancer activity against human UACC-257 cells assessed as cell growth inhibition at 10 uM incubated for 48 hrs by SRB assay relative to control; format: functional; conditions: read-out: GI
OVCAR-4 = assay: Anticancer activity against human OVCAR-4 cells assessed as cell growth inhibition at 10 uM incubated for 48 hrs by SRB assay relative to control; format: functional; conditions: read-out: GI
RXF 393 = assay: Anticancer activity against human RXF 393 cells assessed as cell growth inhibition at 10 uM incubated for 48 hrs by SRB assay relative to control; format: functional; conditions: read-out: GI
KM12 = assay: Anticancer activity against human KM12 cells assessed as cell growth inhibition at 10 uM incubated for 48 hrs by SRB assay relative to control; format: functional; conditions: read-out: GI
MOLT-4 = assay: Anticancer activity against human MOLT-4 cells assessed as cell growth inhibition at 10 uM incubated for 48 hrs by SRB assay relative to control; format: functional; conditions: read-out: GI
SK-OV-3 = assay: Anticancer activity against human SK-OV-3 cells assessed as cell growth inhibition at 10 uM incubated for 48 hrs by SRB assay relative to control; format: functional; conditions: read-out: GI
MDA-MB-435 = assay: Anticancer activity against human MDA-MB-435 cells assessed as cell growth inhibition at 10 uM incubated for 48 hrs by SRB assay relative to control; format: functional; conditions: read-out: GI
HT-29 = assay: Anticancer activity against human HT-29 cells assessed as cell growth inhibition at 10 uM incubated for 48 hrs by SRB assay relative to control; format: functional; conditions: read-out: GI
HOP-62 = assay: Anticancer activity against human HOP-62 cells assessed as cell growth inhibition at 10 uM incubated for 48 hrs by SRB assay relative to control; format: functional; conditions: read-out: GI
CAKI-1 = assay: Anticancer activity against human CAKI-1 cells assessed as cell growth inhibition at 10 uM incubated for 48 hrs by SRB assay relative to control; format: functional; conditions: read-out: GI
SR = assay: Anticancer activity against human SR cells assessed as cell growth inhibition at 10 uM incubated for 48 hrs by SRB assay relative to control; format: functional; conditions: read-out: GI
OVCAR-3 = assay: Anticancer activity against human OVCAR-3 cells assessed as cell growth inhibition at 10 uM incubated for 48 hrs by SRB assay relative to control; format: functional; conditions: read-out: GI
MDA-MB-231 = assay: Anticancer activity against human MDA-MB-231 cells assessed as cell growth inhibition at 10 uM incubated for 48 hrs by SRB assay relative to control; format: functional; conditions: read-out: GI
SK-MEL-5 = assay: Anticancer activity against human SK-MEL-5 cells assessed as cell growth inhibition at 10 uM incubated for 48 hrs by SRB assay relative to control; format: functional; conditions: read-out: GI
SK-MEL-2 = assay: Anticancer activity against human SK-MEL-2 cells assessed as cell growth inhibition at 10 uM incubated for 48 hrs by SRB assay relative to control; format: functional; conditions: read-out: GI
SF-295 = assay: Anticancer activity against human SF-295 cells assessed as cell growth inhibition at 10 uM incubated for 48 hrs by SRB assay relative to control; format: functional; conditions: read-out: GI
SK-MEL-28 = assay: Anticancer activity against human SK-MEL-28 cells assessed as cell growth inhibition at 10 uM incubated for 48 hrs by SRB assay relative to control; format: functional; conditions: read-out: GI
HCC 2998 = assay: Anticancer activity against human HCC 2998 cells assessed as cell growth inhibition at 10 uM incubated for 48 hrs by SRB assay relative to control; format: functional; conditions: read-out: GI
NCI-H460 = assay: Anticancer activity against human NCI-H460 cells assessed as cell growth inhibition at 10 uM incubated for 48 hrs by SRB assay relative to control; format: functional; conditions: read-out: GI
BT-549 = assay: Anticancer activity against human BT-549 cells assessed as cell growth inhibition at 10 uM incubated for 48 hrs by SRB assay relative to control; format: functional; conditions: read-out: GI
SN12C = assay: Anticancer activity against human SN12C cells assessed as cell growth inhibition at 10 uM incubated for 48 hrs by SRB assay relative to control; format: functional; conditions: read-out: GI
TK-10 = assay: Anticancer activity against human TK-10 cells assessed as cell growth inhibition at 10 uM incubated for 48 hrs by SRB assay relative to control; format: functional; conditions: read-out: GI
HCT-116 = assay: Anticancer activity against human HCT-116 cells assessed as cell growth inhibition at 10 uM incubated for 48 hrs by SRB assay relative to control; format: functional; conditions: read-out: GI
NCI-H23 = assay: Anticancer activity against human NCI-H23 cells assessed as cell growth inhibition at 10 uM incubated for 48 hrs by SRB assay relative to control; format: functional; conditions: read-out: GI
HOP-92 = assay: Anticancer activity against human HOP-92 cells assessed as cell growth inhibition at 10 uM incubated for 48 hrs by SRB assay relative to control; format: functional; conditions: read-out: GI
Hs-578T = assay: Anticancer activity against human Hs-578T cells assessed as cell growth inhibition at 10 uM incubated for 48 hrs by SRB assay relative to control; format: functional; conditions: read-out: GI
T47D = assay: Anticancer activity against human T47D cells assessed as cell growth inhibition at 10 uM incubated for 48 hrs by SRB assay relative to control; format: functional; conditions: read-out: GI

Row | Structure (SMILES) | inhibition of growth at 10 µM (NCI-H522) [%] | inhibition of growth at 10 µM (ACHN) [%] | inhibition of growth at 10 µM (MDA-MB-468) [%] | Ki (Carbonic anhydrase 9) [nM] | inhibition of growth at 10 µM (OVCAR-5) [%] | inhibition of growth at 10 µM (SNB-75) [%] | inhibition of growth at 10 µM (SNB-19) [%] | inhibition of growth at 10 µM (IGROV-1) [%] | inhibition of growth at 10 µM (HL-60(TB)) [%] | inhibition of growth at 10 µM (Malme-3M) [%] | inhibition of growth at 10 µM (K562) [%] | inhibition of growth at 10 µM (SF-539) [%] | inhibition of growth at 10 µM (UACC-257) [%] | inhibition of growth at 10 µM (OVCAR-4) [%] | inhibition of growth at 10 µM (RXF 393) [%] | inhibition of growth at 10 µM (KM12) [%] | inhibition of growth at 10 µM (MOLT-4) [%] | inhibition of growth at 10 µM (SK-OV-3) [%] | inhibition of growth at 10 µM (MDA-MB-435) [%] | inhibition of growth at 10 µM (HT-29) [%] | other results
1 | NS(=O)(=O)c1ccc(Nc2nc(N/N=C/c3cccs3)nc(Nc3ccccc3)n2)cc1 | 20 | 21 | 50 | 255 | 19 | 16 | < 10 | 65 | 29 | 20 | 39 | 34 | < 10 | 29 | 52 | 44 | 42 | < 10 | 25 | 29 | inhibition of growth at 10 µM (HOP-62): 15%; inhibition of growth at 10 µM (CAKI-1): 44%; inhibition of growth at 10 µM (SR): 52%; inhibition of growth at 10 µM (OVCAR-3): 35%; inhibition of growth at 10 µM (MDA-MB-231): 53%; inhibition of growth at 10 µM (SK-MEL-5): 26%; inhibition of growth at 10 µM (SK-MEL-2): 24%; inhibition of growth at 10 µM (SF-295): 23%; inhibition of growth at 10 µM (SK-MEL-28): 20%; inhibition of growth at 10 µM (HCC 2998): 11%; inhibition of growth at 10 µM (NCI-H460): 31%; inhibition of growth at 10 µM (BT-549): 22%; inhibition of growth at 10 µM (SN12C): 13%; inhibition of growth at 10 µM (TK-10): < 10%; inhibition of growth at 10 µM (HCT-116): 74%; inhibition of growth at 10 µM (NCI-H23): 19%; inhibition of growth at 10 µM (HOP-92): 44%; inhibition of growth at 10 µM (Hs-578T): 34%; inhibition of growth at 10 µM (T47D): 38%
2 | Cc1nn(-c2ccccc2)cc1/C=N/Nc1nc(Nc2ccccc2)nc(Nc2ccc(S(N)(=O)=O)cc2)n1 | 100 | 100 | 137 | 207 | 113 | 55 | 92 | 86 | 96 | 125 | 90 | 28 | 44 | 85 | 120 | 90 | 93 | 49 | 131 | 94 | inhibition of growth at 10 µM (HOP-62): 90%; inhibition of growth at 10 µM (CAKI-1): 127%; inhibition of growth at 10 µM (SR): 66%; inhibition of growth at 10 µM (OVCAR-3): 131%; inhibition of growth at 10 µM (MDA-MB-231): 120%; inhibition of growth at 10 µM (SK-MEL-5): 144%; inhibition of growth at 10 µM (SK-MEL-2): 45%; inhibition of growth at 10 µM (SF-295): 89%; inhibition of growth at 10 µM (SK-MEL-28): 113%; inhibition of growth at 10 µM (HCC 2998): 117%; inhibition of growth at 10 µM (NCI-H460): 135%; inhibition of growth at 10 µM (BT-549): 78%; inhibition of growth at 10 µM (SN12C): 100%; inhibition of growth at 10 µM (TK-10): 55%; inhibition of growth at 10 µM (HCT-116): 59%; inhibition of growth at 10 µM (NCI-H23): 114%; inhibition of growth at 10 µM (HOP-92): 113%; inhibition of growth at 10 µM (Hs-578T): 86%; inhibition of growth at 10 µM (T47D): 81%

Source: ChEMBL document CHEMBL5154747, “Discovery of new carbonic anhydrase IX inhibitors as anticancer agents by toning the hydrophobic and hydrophilic rims of the active site to encounter the dual-tail approach” (Eur J Med Chem, 2022)
